Experimental data as given in patent US4323581A, “Method of treating carcinogenesis” (priority 1978, dated 1982).

Tests used:
epithelial cancer = assay: Effectiveness in preventing epithelial cancer in mammals; assay type: in vivo; conditions: at reasonable dose levels
[1] = U.S. Pat. No. 4,108,880; cited from earlier work
LD50 in Swiss mice = conditions: mouse, in vivo
Method: The drug is administered at regular intervals, conveniently at meal times or once daily.

[2] = Toxicity compared to retinyl acetate; conditions: in vivo
[3] = Accumulation in the liver; assay type: in vivo; conditions: unlike the natural retinyl esters
[4] = Target specificity in concentrating at the breast; conditions: in vivo
tracheal epithelium [5] = assay: Reversal of keratinized squamous metaplastic lesions of vitamin A deficiency in tracheal organ culture; assay type: cell-based; conditions: for % of Cultures with Keratin and Keratohyaline Granules / % of Cultures with Respective Amounts of Squamous Metaplasia: None / % of Cultures with Respective Amounts of Squamous Metaplasia: Marked / % of Cultures with Respective Amounts of Squamous Metaplasia: Mild / % of Cultures with Respective Amounts of Squamous Metaplasia: Minimal / % of Cultures with Respective Amounts of Squamous Metaplasia: Severe: collected day 10; for % of Cultures with Respective Amounts of Squamous Metaplasia: Marked: marked = 10-40% squamous; for % of Cultures with Respective Amounts of Squamous Metaplasia: Mild: mild = 2-10% squamous; for % of Cultures with Respective Amounts of Squamous Metaplasia: Minimal: minimal = less than 2% squamous; for % of Cultures with Respective Amounts of Squamous Metaplasia: Severe: severe = more than 40% squamous
Text: N-(4-hydroxyphenyl)-all-trans-retinamide was compared with retinoic acid in an in vitro screening model for identifying retinoids having activity in preventing carcinogenesis in epithelial tissue. The experimental method, which is described in Experimental Lung Cancer:Intern'l Symp, 575-82, 1974, involves reversal of keratinization in tracheal organ culture.
In brief summary, in the absence of retinoic acid or a synthetic retinoid having similar activity, the test organ culture of tracheal epithelium undergoes abnormal differentiation. Addition of small concentrations of retinoic acid (as low as 10^-9 M) will cause reversion to normal tracheal epithelium. Test compounds are compared in activity to retinoic acid or another active standard both as regards squamous metaplasia and keratin production, both of which are measures of abnormal development of the epithelial culture.
In carrying out the tests reported in Table I, all tracheas were cultured for the first 3 days in medium without retinoid. At this time, some tracheas were collected, while the rest were cultured for a further week in medium containing either no retinoid, or retinoid added at the concentrations shown. These tracheas were collected on the 10th day of culture. Cultures were graded as to the percentage of their total epithelium showing squamous metaplasia on eight cross sections from the middle of each trachea. If more than 40% of the total epithelial length was squamous, it was graded as having severe squamous metaplasia; between 10-40% was graded as marked; between 2-10% was graded as mild; and less than 2% was graded as minimal.

breast cancer [6] = assay: Prevention of breast cancer in rats, oral dosing; assay type: in vivo; conditions: oral doses of 32 and 64 mg/kg/day
[7] = compared with sunscreening amounts of retinoic acid; U.S. Pat. No. 4,108,880; cited from earlier work
Systemic toxicity = conditions: in vivo
[8] = test system: MNU-induced mammary cancer; assay: Inhibition of mammary carcinogenesis induced by N-methyl-N-nitrosourea (MNU), rat breast cancer; assay type: in vivo, Female Sprague-Dawley rats
[9] = test system: MNU-induced mammary cancer; assay: as above; assay type: in vivo, Female Sprague-Dawley rats; conditions: Table III
Text: On the basis of the encouraging results summarized in the foregoing example, N-(4-hydroxyphenyl)-all-trans-retinamide was compared to retinyl acetate in the experimental assay for efficacy against rat breast cancer described in Nature Vol. 267, pp 620-621 (June 16, 1977), which measures the ability to inhibit mammary carcinogenesis induced by N-methyl-N-nitrosourea (MNU). The results of further extension of the tests, comparing the 4-hydroxyphenyl retinamide only to placebo, after 18 weeks with high dose MNU and 21 weeks with low dose MNU, are set forth in Table III. The results using these two different levels of MNU and two dietary levels of retinoid are shown graphically in FIGS. 1 and 2 after 18 weeks of testing.
Animals: Female Sprague-Dawley rats obtained from ARS Sprague-Dawley.
Crystalline MNU. Rats received 2 I.V. injections at 50 and 57
High dose is 50 mg/kg; low dose 15 mg/kg.
Retinoids were dissolved in solvent and blended into the diets.
placed on diets 3 days after last MNU injection.
50 gm trioctanoin:ethanol (3:1), 0.05 ml Tenox 20, 0.05 ml
50 gm retinoid solvent/kg diet.
High dose is 50 mg/kg; low dose 15 mg/kg. Rats on high dose of
sacrificed after 18 weeks.
Placebo: 50 gm retinoid solvent/kg diet.

[10] = cited from earlier work; for toxicity at high dosage levels: higher mammals
breast cancer [11] = conditions: in vivo; cited from earlier work
chemical carcinogenesis = conditions: in vivo; cited from earlier work
tracheal epithelium [12] = conditions: small concentrations, as low as; cited from earlier work
[13] = Table II, 73 days, MNU high dose (50 mg/kg), 391 mg/kg diet
[14] = Table II, 73 days, MNU high dose (50 mg/kg), 782 mg/kg diet
[15] = Table II, 73 days, MNU low dose (15 mg/kg), 391 mg/kg diet
[16] = Table II, 73 days, MNU low dose (15 mg/kg), 782 mg/kg diet
[17] = Table II, 73 days, saline, 391 mg/kg diet
[18] = Table II, 73 days, saline, 782 mg/kg diet
[19] = Table III, 18 weeks, MNU high dose (50 mg/kg), 782 mg/kg diet
[20] = Table III, 21 weeks, MNU low dose (15 mg/kg), 782 mg/kg diet
[21] = Table III, saline, 391 mg/kg diet
[22] = Table III, saline, 782 mg/kg diet
[23] = 18 weeks, MNU high dose (50 mg/kg), 391 mg/kg diet
[24] = 21 weeks, MNU low dose (15 mg/kg), 391 mg/kg diet
[25] = Table II, 73 days, MNU high dose (50 mg/kg), 328 mg/kg diet
[26] = Table II, 73 days, MNU high dose (50 mg/kg), 656 mg/kg diet
[27] = Table II, 73 days, MNU low dose (15 mg/kg), 328 mg/kg diet
[28] = Table II, 73 days, MNU low dose (15 mg/kg), 656 mg/kg diet
[29] = Table II, 73 days, saline, 328 mg/kg diet
[30] = Table II, 73 days, saline, 656 mg/kg diet

## CC1=C(/C=C/C(C)=C/C=C/C(C)=C/C(=O)Nc2ccc(O)cc2)C(C)(C)CCC1 [4-Hydroxyphenyl Retinamide, N-(4-hydroxyphenyl)-all-trans-retinamide]
Epithelial cancer
  effectiveness in preventing epithelial cancer in mammals: good effectiveness in preventing epithelial cancer in mammals
[1]
  ultraviolet absorption: good ultraviolet absorber
LD50 in Swiss mice; ip
  LD50: 436 mg/kg
LD50 in Swiss mice; po
  LD50: > 400 mg/kg
[2]
  toxicity relative to retinyl acetate: less toxic
[3]
  accumulation in the liver: does not accumulate in the liver in appreciable amounts
[4]
  target specificity in concentrating at the breast: adequate target specificity in concentrating at the breast
Tracheal epithelium [5]; 10^-8 M
  efficacy relative to retinoic acid: at least as efficacious as retinoic acid
  % of Cultures with Keratin and Keratohyaline Granules: 0%
  % of Cultures with Respective Amounts of Squamous Metaplasia: None: 20%
  % of Cultures with Respective Amounts of Squamous Metaplasia: Marked: 0%
  % of Cultures with Respective Amounts of Squamous Metaplasia: Mild: 0%
  % of Cultures with Respective Amounts of Squamous Metaplasia: Minimal: 80%
  % of Cultures with Respective Amounts of Squamous Metaplasia: Severe: 0%
Tracheal epithelium [5]; 10^-9 M
  efficacy relative to retinoic acid: nearly as efficaceous
  % of Cultures with Keratin and Keratohyaline Granules: 40%
  % of Cultures with Respective Amounts of Squamous Metaplasia: None: 20%
  % of Cultures with Respective Amounts of Squamous Metaplasia: Marked: 0%
  % of Cultures with Respective Amounts of Squamous Metaplasia: Mild: 30%
  % of Cultures with Respective Amounts of Squamous Metaplasia: Minimal: 20%
  % of Cultures with Respective Amounts of Squamous Metaplasia: Severe: 30%
Tracheal epithelium [5]; 10^-10 M
  efficacy: virtually inefficacious
  % of Cultures with Keratin and Keratohyaline Granules: 100%
  % of Cultures with Respective Amounts of Squamous Metaplasia: None: 0%
  % of Cultures with Respective Amounts of Squamous Metaplasia: Marked: 75%
  % of Cultures with Respective Amounts of Squamous Metaplasia: Mild: 12%
  % of Cultures with Respective Amounts of Squamous Metaplasia: Minimal: 0%
  % of Cultures with Respective Amounts of Squamous Metaplasia: Severe: 12%
Breast cancer [6]
  prevention of breast cancer in rats: very effective in preventing breast cancer in rats
[7]
  irritating effect on skin: does not have the irritating effect on skin that would be expected from the use of sunscreening amounts of retinoic acid
Systemic toxicity
  systemic toxicity: low systemic toxicity
[8]; MNU-induced mammary carcinogenesis
  efficacy relative to retinyl acetate: substantially as efficacious as retinyl acetate
[8]; [13]
  Mammary Tumor Incidence: 5/16
  Mammary Tumor Incidence (%): 31%
[8]; [14]
  Mammary Tumor Incidence: 0/17
  Mammary Tumor Incidence (%): 0%
[8]; [15]
  Mammary Tumor Incidence: 0/40
  Mammary Tumor Incidence (%): 0%
[8]; [16]
  Mammary Tumor Incidence: 0/39
  Mammary Tumor Incidence (%): 0%
[8]; [17]
  Mammary Tumor Incidence: 0/10
  Mammary Tumor Incidence (%): 0%
[8]; [18]
  Mammary Tumor Incidence: 0/10
  Mammary Tumor Incidence (%): 0%
[8]; Table III, 18 weeks, MNU high dose (50 mg/kg), 391 mg/kg diet
  Total Number of Tumors: 48
[8]; [19]
  Mammary Tumor Incidence: 11/17
  Total Number of Tumors: 37
[8]; Table III, 21 weeks, MNU low dose (15 mg/kg), 391 mg/kg diet
  Mammary Tumor Incidence: 5/40
[8]; [20]
  Mammary Tumor Incidence: 3/39
  Mammary Tumor Incidence (%): 8%
  Total Number of Tumors: 4
[8]; [21]
  Mammary Tumor Incidence (%): 0%
  Total Number of Tumors: 0
[8]; [22]
  Mammary Tumor Incidence: 0/10
  Mammary Tumor Incidence (%): 0%
[9]; [23]
  Mammary Tumor Incidence: 13/16
  Mammary Tumor Incidence (%): 81%
[9]; 18 weeks, MNU high dose (50 mg/kg), 782 mg/kg diet
  Mammary Tumor Incidence (%): 64%
[9]; [24]
  Mammary Tumor Incidence (%): 12%
  Total Number of Tumors: 5
[9]; saline, 391 mg/kg diet
  Mammary Tumor Incidence: 0/10
[9]; saline, 782 mg/kg diet
  Total Number of Tumors: 0

## CC1=C(/C=C/C(C)=C/C=C/C(C)=C\C(=O)O)C(C)(C)CCC1 [13-cis-retinoic acid]
[10]; in vivo
  toxicity relative to retinoic acid or the natural retinyl esters: considerably less toxic than retinoic acid or the natural retinyl esters
Breast cancer [11]
  effectiveness against breast cancer in the rat model: has not been found to be particularly effective against breast cancer in the rat model
Chemical carcinogenesis
  potency in preventing chemical carcinogenesis relative to retinoic acid or the natural retinyl esters: more potent in preventing chemical carcinogenesis

## CC1=C(/C=C/C(C)=C/C=C/C(C)=C/C(=O)O)C(C)(C)CCC1 [Retinoic Acid, retinoic acid, reference compound]
[10]
  toxicity at high dosage levels: too toxic at high dosage levels to be of practical value for cancer prevention in higher mammals
Tracheal epithelium [12]
  lowest concentration causing reversion to normal tracheal epithelium: 10^-9 M
Tracheal epithelium [5]; 10^-8 M
  % of Cultures with Keratin and Keratohyaline Granules: 0%
  % of Cultures with Respective Amounts of Squamous Metaplasia: None: 27%
  % of Cultures with Respective Amounts of Squamous Metaplasia: Marked: 0%
  % of Cultures with Respective Amounts of Squamous Metaplasia: Mild: 23%
  % of Cultures with Respective Amounts of Squamous Metaplasia: Minimal: 49%
  % of Cultures with Respective Amounts of Squamous Metaplasia: Severe: 0%
Tracheal epithelium [5]; 10^-9 M
  % of Cultures with Keratin and Keratohyaline Granules: 3%
  % of Cultures with Respective Amounts of Squamous Metaplasia: None: 16%
  % of Cultures with Respective Amounts of Squamous Metaplasia: Marked: 12%
  % of Cultures with Respective Amounts of Squamous Metaplasia: Mild: 32%
  % of Cultures with Respective Amounts of Squamous Metaplasia: Minimal: 37%
  % of Cultures with Respective Amounts of Squamous Metaplasia: Severe: 2%
Tracheal epithelium [5]; 10^-10 M
  % of Cultures with Keratin and Keratohyaline Granules: 32%
  % of Cultures with Respective Amounts of Squamous Metaplasia: None: 9%
  % of Cultures with Respective Amounts of Squamous Metaplasia: Marked: 17%
  % of Cultures with Respective Amounts of Squamous Metaplasia: Mild: 43%
  % of Cultures with Respective Amounts of Squamous Metaplasia: Minimal: 4%
  % of Cultures with Respective Amounts of Squamous Metaplasia: Severe: 28%

## CC(=O)OC/C=C(C)/C=C/C=C(C)/C=C/C1=C(C)CCCC1(C)C [Retinyl Acetate, retinyl acetate, reference compound]
[10]
  toxicity at high dosage levels: too toxic at high dosage levels to be of practical value for cancer prevention in higher mammals
[8]; [25]
  Mammary Tumor Incidence: 5/19
  Mammary Tumor Incidence (%): 26%
[8]; [26]
  Mammary Tumor Incidence: 4/17
  Mammary Tumor Incidence (%): 24%
[8]; [27]
  Mammary Tumor Incidence: 0/39
  Mammary Tumor Incidence (%): 0%
[8]; [28]
  Mammary Tumor Incidence: 0/40
  Mammary Tumor Incidence (%): 0%
[8]; [29]
  Mammary Tumor Incidence: 0/10
  Mammary Tumor Incidence (%): 0%
[8]; [30]
  Mammary Tumor Incidence: 0/10
  Mammary Tumor Incidence (%): 0%

## CCCCCCCCCCCCCCCC(=O)OC/C=C(C)/C=C/C=C(C)/C=C/C1=C(C)CCCC1(C)C [retinyl palmitate]
[10]
  toxicity at high dosage levels: too toxic at high dosage levels to be of practical value for cancer prevention in higher mammals
